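Interpolation was linear, between the two tested concentrations surrounding the appropriate level; five concentrations were tested over 48 hours in 96-well plates. Abbreviation: GI50, concentration required for 50% inhibition of growth.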 The source made the active and inactive calls. Rule as the data show it: active = GI50 up to about 1.1 µM and inactive = higher.
What was measured:
Test in all cases: NCI tumour cell line growth inhibition, 48 h
K562 = system: K562
SK-MEL-5 = system: SK-MEL-5
CAKI-1 = system: CAKI-1
EKVX = system: EKVX
RPMI-8226 = system: RPMI-8226
786-0 = system: 786-0
LXFL 529 = system: LXFL 529
SK-MEL-2 = system: SK-MEL-2
LOX IMVI = system: LOX IMVI
SK-OV-3 = system: SK-OV-3
CCRF-CEM = system: CCRF-CEM
SF-295 = system: SF-295
M14 = system: M14
ACHN = system: ACHN
SF-268 = system: SF-268
SR = system: SR
SK-MEL-28 = system: SK-MEL-28
NCI-H522 = system: NCI-H522
Hs-578T = system: Hs-578T
MDA-MB-435 = system: MDA-MB-435

Measured: GI50

CCc1c(OC(C)=O)c2c(NC3OC(COC(C)=O)C(OC(C)=O)C(OC(C)=O)C3OC(C)=O)nc(SC)nc2oc1=O (centres undefined)
inactive: K562 > 100 µM | SK-MEL-5 > 100 µM | CAKI-1 > 100 µM | EKVX > 100 µM | RPMI-8226 > 100 µM | 786-0 > 100 µM | LXFL 529 > 100 µM | SK-MEL-2 > 100 µM | LOX IMVI > 100 µM | SK-OV-3 > 100 µM | CCRF-CEM > 100 µM | SF-295 > 100 µM | M14 > 100 µM | ACHN > 100 µM

CC(C)(C)C1=CC(CCC(=O)Nc2ccccc2[N+](=O)[O-])=NC(S)N1 (centres undefined)
inactive: K562 > 100 µM | SK-MEL-5 > 100 µM | SF-268 > 100 µM | CAKI-1 > 100 µM | EKVX > 100 µM | 786-0 > 100 µM | LXFL 529 > 100 µM | SK-MEL-2 > 100 µM | LOX IMVI > 100 µM | SK-OV-3 > 100 µM | SR > 100 µM | CCRF-CEM > 100 µM | SK-MEL-28 > 100 µM | SF-295 > 100 µM | M14 > 100 µM | ACHN > 100 µM

O=C(O)c1cc(Cl)cc(NC(=O)C(Cl)Cl)c1Cl
inactive: K562 > 100 µM | SK-MEL-5 > 100 µM | SF-268 > 100 µM | CAKI-1 > 100 µM | EKVX > 100 µM | RPMI-8226 > 100 µM | 786-0 > 100 µM | LXFL 529 > 100 µM | SK-MEL-2 > 100 µM | LOX IMVI > 100 µM | SK-OV-3 > 100 µM | CCRF-CEM > 100 µM | SK-MEL-28 > 100 µM | SF-295 > 100 µM | M14 > 100 µM | ACHN > 100 µM | NCI-H522 > 100 µM

OC1(c2cccs2)c2cccc(Cl)c2C(O)(c2cccs2)c2c(Cl)cccc21 (centres undefined)
inactive: K562 > 100 µM | SK-MEL-5 > 100 µM | SF-268 22.3 µM | CAKI-1 > 100 µM | EKVX > 100 µM | RPMI-8226 > 100 µM | 786-0 34.4 µM | SK-MEL-2 37.2 µM | LOX IMVI > 100 µM | SK-OV-3 81.5 µM | SR 36.6 µM | CCRF-CEM 93.3 µM | Hs-578T 9.84 µM | SK-MEL-28 > 100 µM | SF-295 33.1 µM | M14 > 100 µM | ACHN > 100 µM | NCI-H522 96.6 µM | MDA-MB-435 > 100 µM

O=C(CC1(O)C(=O)Nc2ccccc21)c1ccc(F)cc1 (centres undefined)
inactive: K562 > 100 µM | SK-MEL-5 > 100 µM | SF-268 > 100 µM | CAKI-1 > 100 µM | EKVX > 100 µM | RPMI-8226 > 100 µM | 786-0 > 100 µM | LXFL 529 > 100 µM | SK-MEL-2 > 100 µM | LOX IMVI > 100 µM | SK-OV-3 > 100 µM | SK-MEL-28 > 100 µM | SF-295 > 100 µM | M14 > 100 µM | ACHN > 100 µM | NCI-H522 > 100 µM

COc1ccc(/C=C2\CCc3ccccc3C2=O)cc1OC
inactive: K562 23.2 µM | SK-MEL-5 15.9 µM | SF-268 20.8 µM | CAKI-1 31.6 µM | EKVX 51.8 µM | RPMI-8226 13.9 µM | 786-0 34.5 µM | LXFL 529 25.7 µM | SK-MEL-2 31.1 µM | SK-OV-3 18.7 µM | CCRF-CEM 24.8 µM | SK-MEL-28 25.3 µM | SF-295 32.9 µM | M14 22.4 µM | ACHN 24.5 µM | NCI-H522 17.1 µM

COC(=O)c1cc(C(=CCC[C@H]2CC[C@@]3(C)C(CCC4C3CC[C@@]3(C)C4CC[C@@H]3C(C)CCCC(C)C)C2)c2cc(Cl)c(OC(=O)c3ccccc3)c(C(=O)OC)c2)cc(Cl)c1OC(=O)c1ccccc1 (some centres undefined)
inactive: K562 > 10 µM | SK-MEL-5 > 10 µM | SF-268 > 10 µM | CAKI-1 > 10 µM | EKVX > 10 µM | RPMI-8226 > 10 µM | 786-0 > 10 µM | SK-MEL-2 > 10 µM | LOX IMVI > 10 µM | SK-OV-3 > 10 µM | SR > 10 µM | CCRF-CEM > 10 µM | Hs-578T > 10 µM | SK-MEL-28 > 10 µM | SF-295 > 10 µM | M14 > 10 µM | ACHN > 10 µM | NCI-H522 > 10 µM | MDA-MB-435 > 10 µM

Nc1nc(=O)n([C@@H]2CC[C@H](CO)O2)cc1F
inactive: K562 > 100 µM | SK-MEL-5 > 100 µM | SF-268 > 100 µM | CAKI-1 > 100 µM | EKVX > 100 µM | RPMI-8226 > 100 µM | 786-0 > 100 µM | LXFL 529 > 100 µM | SK-MEL-2 > 100 µM | LOX IMVI > 100 µM | SK-OV-3 > 100 µM | CCRF-CEM > 100 µM | SK-MEL-28 > 100 µM | SF-295 > 100 µM | M14 > 100 µM | ACHN > 100 µM | NCI-H522 > 100 µM

— ChEMBL document CHEMBL1201862, “PubChem BioAssay data set” (2004)
